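1) Cells in 96-well plates. 2) Compound, 48 h, 5 concentrations. 3) Linear interpolation between surrounding doses. 4) Unreached endpoint = highest concentration. GI50 = concentration required for 50% inhibition of growth.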 Active and inactive are the calls of the source. Cut-off read from the data, not from the text of the source: active = GI50 up to about 1.1 µM and inactive = higher.
Tests used:
Assay in all cases: growth of human tumour cells (NCI), 48 h
SN12C = test system: SN12C
OVCAR-5 = test system: OVCAR-5
SF-295 = test system: SF-295
KM12 = test system: KM12
NCI-H226 = test system: NCI-H226
A498 = test system: A498
NCI-H460 = test system: NCI-H460
Malme-3M = test system: Malme-3M
IGROV-1 = test system: IGROV-1
NCI-H23 = test system: NCI-H23
NCI/ADR-RES = test system: NCI/ADR-RES
OVCAR-3 = test system: OVCAR-3
HCT-15 = test system: HCT-15
DU-145 = test system: DU-145
HOP-62 = test system: HOP-62
HL-60 = test system: HL-60
BT-549 = test system: BT-549
SK-MEL-28 = test system: SK-MEL-28
HT-29 = test system: HT-29
OVCAR-8 = test system: OVCAR-8
SK-OV-3 = test system: SK-OV-3
MOLT-4 = test system: MOLT-4
COLO 205 = test system: COLO 205
MDA-MB-231 = test system: MDA-MB-231
T47D = test system: T47D
UACC-257 = test system: UACC-257
OVCAR-4 = test system: OVCAR-4
RXF 393 = test system: RXF 393
SNB-75 = test system: SNB-75
SF-268 = test system: SF-268
HCT-116 = test system: HCT-116
U-251 = test system: U-251
LOX IMVI = test system: LOX IMVI
K562 = test system: K562
SNB-19 = test system: SNB-19
A549 = test system: A549
RPMI-8226 = test system: RPMI-8226
TK-10 = test system: TK-10
CCRF-CEM = test system: CCRF-CEM
EKVX = test system: EKVX
CAKI-1 = test system: CAKI-1
MDA-MB-435 = test system: MDA-MB-435
UO-31 = test system: UO-31
MDA-N = test system: MDA-N
SK-MEL-5 = test system: SK-MEL-5
HCC 2998 = test system: HCC 2998
786-0 = test system: 786-0
UACC-62 = test system: UACC-62
ACHN = test system: ACHN
MCF7 = test system: MCF7
SF-539 = test system: SF-539
SW-620 = test system: SW-620
SR = test system: SR
PC-3 = test system: PC-3
NCI-H522 = test system: NCI-H522
M14 = test system: M14
SK-MEL-2 = test system: SK-MEL-2
HOP-92 = test system: HOP-92

COc1ccc2c3c1OC1C(OC)(OC)CC4(C=C2)CN(C)CCC314 (configuration not stated)
GI50 (SN12C): > 100 µM (inactive) | GI50 (OVCAR-5): > 100 µM (inactive) | GI50 (SF-295): > 100 µM (inactive) | GI50 (KM12): > 100 µM (inactive) | GI50 (NCI-H226): > 100 µM (inactive) | GI50 (A498): 28.6 µM (inactive) | GI50 (NCI-H460): > 100 µM (inactive) | GI50 (Malme-3M): > 100 µM (inactive) | GI50 (IGROV-1): > 100 µM (inactive) | GI50 (NCI-H23): > 100 µM (inactive) | GI50 (NCI/ADR-RES): > 100 µM (inactive) | GI50 (OVCAR-3): > 100 µM (inactive) | GI50 (HCT-15): > 100 µM | GI50 (DU-145): > 100 µM (inactive) | GI50 (HOP-62): > 100 µM (inactive) | GI50 (HL-60): 20.3 µM (inactive) | GI50 (BT-549): > 100 µM (inactive) | GI50 (SK-MEL-28): > 100 µM (inactive) | GI50 (HT-29): > 100 µM (inactive) | GI50 (OVCAR-8): > 100 µM (inactive) | GI50 (SK-OV-3): > 100 µM (inactive) | GI50 (MOLT-4): > 100 µM (inactive) | GI50 (COLO 205): > 100 µM (inactive) | GI50 (MDA-MB-231): > 100 µM (inactive) | GI50 (T47D): > 100 µM (inactive) | GI50 (UACC-257): > 100 µM (inactive) | GI50 (OVCAR-4): > 100 µM (inactive) | GI50 (RXF 393): > 100 µM (inactive) | GI50 (SNB-75): > 100 µM (inactive) | GI50 (SF-268): > 100 µM (inactive) | GI50 (HCT-116): > 100 µM (inactive) | GI50 (U-251): > 100 µM (inactive) | GI50 (LOX IMVI): > 100 µM (inactive) | GI50 (K562): 41.9 µM (inactive) | GI50 (SNB-19): > 100 µM (inactive) | GI50 (A549): > 100 µM (inactive) | GI50 (RPMI-8226): > 100 µM (inactive) | GI50 (TK-10): > 100 µM (inactive) | GI50 (CCRF-CEM): 30.4 µM (inactive) | GI50 (EKVX): > 100 µM (inactive) | GI50 (CAKI-1): > 100 µM (inactive) | GI50 (MDA-MB-435): > 100 µM (inactive) | GI50 (UO-31): > 100 µM (inactive) | GI50 (MDA-N): > 100 µM (inactive) | GI50 (SK-MEL-5): > 100 µM (inactive) | GI50 (HCC 2998): > 100 µM (inactive) | GI50 (786-0): > 100 µM (inactive) | GI50 (UACC-62): > 100 µM (inactive) | GI50 (ACHN): > 100 µM (inactive) | GI50 (MCF7): > 100 µM (inactive) | GI50 (SF-539): > 100 µM (inactive) | GI50 (SW-620): > 100 µM (inactive)

COc1ccc(C2C3=CONC3CC3CCCCC32)cc1 (configuration not stated)
GI50 (OVCAR-5): > 100 µM (inactive) | GI50 (NCI-H226): > 100 µM (inactive) | GI50 (NCI-H460): 33.8 µM (inactive) | GI50 (Malme-3M): 43.3 µM (inactive) | GI50 (IGROV-1): > 100 µM (inactive) | GI50 (NCI-H23): 35.2 µM (inactive) | GI50 (OVCAR-3): 39.8 µM (inactive) | GI50 (SR): 41.9 µM (inactive) | GI50 (HOP-62): > 100 µM (inactive) | GI50 (HL-60): 29.6 µM (inactive) | GI50 (BT-549): > 100 µM (inactive) | GI50 (SK-MEL-28): 68.4 µM (inactive) | GI50 (HT-29): > 100 µM (inactive) | GI50 (OVCAR-8): 85.7 µM (inactive) | GI50 (MOLT-4): 18.9 µM (inactive) | GI50 (T47D): 35.6 µM (inactive) | GI50 (UACC-257): 80.2 µM (inactive) | GI50 (PC-3): 30.6 µM (inactive) | GI50 (NCI-H522): 29.6 µM (inactive) | GI50 (OVCAR-4): 50.4 µM (inactive) | GI50 (SNB-75): > 100 µM (inactive) | GI50 (SF-268): 79.4 µM (inactive) | GI50 (HCT-116): 29.8 µM (inactive) | GI50 (U-251): 46 µM (inactive) | GI50 (LOX IMVI): 69.7 µM (inactive) | GI50 (M14): 54.5 µM (inactive) | GI50 (K562): 39.4 µM (inactive) | GI50 (SNB-19): 92.7 µM (inactive) | GI50 (A549): 33.8 µM (inactive) | GI50 (RPMI-8226): 28.8 µM (inactive) | GI50 (SK-MEL-2): 33.8 µM (inactive) | GI50 (TK-10): > 100 µM (inactive) | GI50 (CCRF-CEM): 42.1 µM (inactive) | GI50 (CAKI-1): > 100 µM (inactive) | GI50 (MDA-MB-435): 47.9 µM (inactive) | GI50 (UO-31): 38 µM (inactive) | GI50 (MDA-N): > 10 µM (inactive) | GI50 (SK-MEL-5): 50.8 µM (inactive) | GI50 (HCC 2998): 18.5 µM (inactive) | GI50 (786-0): 46.7 µM (inactive) | GI50 (UACC-62): 70.1 µM (inactive) | GI50 (ACHN): 51.5 µM (inactive) | GI50 (MCF7): 12.8 µM (inactive) | GI50 (SW-620): > 100 µM (inactive)

CC1(C)[C@@H]2C[C@H]1[C@@H](Cc1cccc(C[C@H]3c4cc(-c5ccccn5)ncc4[C@H]4C[C@@H]3C4(C)C)c1)c1cc(-c3ccccn3)ncc12
GI50 (SN12C): 5.68 µM (inactive) | GI50 (OVCAR-5): > 72.4 µM (inactive) | GI50 (SF-295): 0.69 µM (active) | GI50 (KM12): 3.12 µM (inactive) | GI50 (NCI-H226): 2.83 µM (inactive) | GI50 (A498): > 44.4 µM (inactive) | GI50 (NCI-H460): 0.889 µM (active) | GI50 (IGROV-1): 3.49 µM (inactive) | GI50 (NCI-H23): 4.9 µM (inactive) | GI50 (NCI/ADR-RES): 3.78 µM (inactive) | GI50 (OVCAR-3): > 30.5 µM (inactive) | GI50 (HCT-15): 8.24 µM | GI50 (DU-145): 1.09 µM (active) | GI50 (HOP-62): 17.5 µM (inactive) | GI50 (HL-60): 1.29 µM (inactive) | GI50 (BT-549): > 100 µM (inactive) | GI50 (SK-MEL-28): 4.92 µM (inactive) | GI50 (HT-29): 3.17 µM (inactive) | GI50 (OVCAR-8): 1.79 µM (inactive) | GI50 (SK-OV-3): > 100 µM (inactive) | GI50 (MOLT-4): 1.41 µM (inactive) | GI50 (COLO 205): 2.93 µM (inactive) | GI50 (MDA-MB-231): > 31.8 µM (inactive) | GI50 (T47D): 2.44 µM (inactive) | GI50 (UACC-257): 4.62 µM (inactive) | GI50 (PC-3): 12.6 µM (inactive) | GI50 (NCI-H522): 8.93 µM (inactive) | GI50 (OVCAR-4): > 100 µM (inactive) | GI50 (RXF 393): 4.39 µM (inactive) | GI50 (SNB-75): > 22.8 µM (inactive) | GI50 (SF-268): 1.97 µM (inactive) | GI50 (HCT-116): 1.09 µM (active) | GI50 (U-251): 2.92 µM (inactive) | GI50 (LOX IMVI): 1.75 µM (inactive) | GI50 (M14): 2.76 µM (inactive) | GI50 (K562): 1.19 µM (inactive) | GI50 (HOP-92): 9.04 µM (inactive) | GI50 (SNB-19): 3.46 µM (inactive) | GI50 (A549): 2.76 µM (inactive) | GI50 (RPMI-8226): 1.47 µM (inactive) | GI50 (SK-MEL-2): > 100 µM (inactive) | GI50 (TK-10): > 39.5 µM (inactive) | GI50 (CCRF-CEM): 1.11 µM (active) | GI50 (EKVX): 4.62 µM (inactive) | GI50 (CAKI-1): 1.75 µM (inactive) | GI50 (MDA-MB-435): 2.96 µM (inactive) | GI50 (UO-31): 1.22 µM (inactive) | GI50 (MDA-N): 6.22 µM (inactive) | GI50 (SK-MEL-5): 3.36 µM (inactive) | GI50 (HCC 2998): 12.4 µM (inactive) | GI50 (786-0): 2.1 µM (inactive) | GI50 (UACC-62): 2.92 µM (inactive) | GI50 (ACHN): 1.37 µM (inactive) | GI50 (MCF7): 4.92 µM (inactive) | GI50 (SF-539): 4 µM (inactive) | GI50 (SW-620): 8.45 µM (inactive)
